The source of these data is patent US20060222628A1, “Gallium complexes of 3-hydroxy-4-pyrones to treat infection by intracellular prokaryotes and DNA viruses” (priority 1999, published 2006).

Structures are written as SMILES.

The test system of one series is Herpes Simplex. Kind of series: Clinical evaluation for Herpes Simplex (I or II) infection and recurrences. The series is classed as in vivo, human. The method, then: Patients with Herpes Simplex infection are treated once per day with gelatin capsules containing gallium maltolate. The population of patients is divided into subpopulation with recurrent Herpes Simplex and acute Herpes Simplex infections respectively. These different subpopulations are divided randomly and blindly into two approximately equal groups with four approximately equal subgroups that receive either 0 (placebo), 250, 500, or 750 mg/day gallium maltolate for about six months. The first group of each subpopulation receive the gallium maltolate dose together with 200 mg acyclovir five times per day. The second group of each subpopulation receive the gallium maltolate dose together with 500 mg ganciclovir twice per day. Patients are medically monitored for resolution recurrences of latent Herpes Simplex infection, or medical symptoms of acute Herpes Simplex infection throughout the study, with the monitoring including in situ hybridization of skin lesions for HSV DNA. In addition for the acute Herpes Simplex infected group, blood serum samples are obtained from the patients at days 0, 3, 7, and 10 and are assayed for HSV particle by routine methods and for Herpes Simplex DNA (viral load assay) using PCR.

In the next series the test system is HIV-1. The series is described as follows: Clinical evaluation in co-infection by HIV and hepatitis B: HIV. As to conditions: hepatitis B co-infected patients; MacSynergy II. It counts as in vivo, human. The method, then: Gallium maltolate is evaluated clinically for efficacy in treating hepatitis B co-infection of a HIV-1 patients. In addition to the methods used in Example 5 for evaluating the HIV disease, the methods employed in the clinical studies discussed in the following references are used in the evaluation: Yao et al. (1997), “Treatment of Chronic Hepatitis B: New Antiviral Therapies,” Curr. Gastroenterol. Rep. 1(1):20-26; Hoofnagle et al. (1997), “New therapies for chronic hepatitis B,” supra.
Patients are treated once per day with gelatin capsules containing gallium maltolate. The population of patients with hepatitis B and HIV infection are first divided into two subpopulations groups based on CD4+ counts (above 350/mm^3 and below 350/mm^3). […]
In each subpopulation, the first group's four subgroups from each subpopulation (above 350/mm^3 and below 350/mm^3) additionally receive the gallium maltolate dose together with 10 million IU interferon by injection once per day. […] Patients are monitored for HIV disease precisely as described in Example 5. Patients are also medically monitored for liver disease, including liver function testing and examination for medical symptoms of hepatitis B infection throughout the study, with careful attention to the possibility that the drugs themselves may cause some liver disease and elevate the liver function tests. […]

A short description of series [1]: Stability of the 3:1 complex in aqueous solutions at various pH by ultraviolet spectroscopy. It counts as physicochemical. Conditions: 1.0×10^−2 M in water, 25° C. The method, then: The pH was adjusted by adding either 1N HCl or 1N Na2CO3. The stability of the complex was determined using ultraviolet spectroscopy over the region 200-450 nm at 25° C. Several absorption peaks are observed in this range, including those at about 212-217 nm, 248 nm, 273 nm, 318 nm, and 385 nm. An isobesic point occurs over much of the pH range at about 290 nm. In the very dilute solutions (2.5×10^−6 M), the neutral 3:1 complex appears to be stable from about pH 4.5 to 9.5. For the less dilute solutions (1.0×10^−2 M), the determination was more difficult due to the very high absorbance.

Consider `Cc1occc(=O)c1[O-].Cc1occc(=O)c1[O-].Cc1occc(=O)c1[O-].[Ga+3]` [gallium maltolate, tris(3-hydroxy-2-methyl-4H-pyran-4-onato)gallium], for which, in the series on Herpes Simplex (HIV negative patients, 250-750 mg/day oral with acyclovir or ganciclovir), the “Efficacy in treating Herpes Simplex infection” value is “effective for treating Herpes Simplex infection, including recurrent sores as well as more serious systemic disease”. Further, the “Efficacy of combination with acyclovir or ganciclovir versus single agents” value with Herpes Simplex (Herpes Simplex) is given as “more effective than either agent alone”. Moreover, the “Synergy with nucleoside analogs” value in the series with Herpes Simplex (Herpes Simplex, MacSynergy II) is listed as “synergy of gallium with both nucleoside analogs is also demonstrated”. Further, the “Synergy with the HAART regime on HIV infection” value in the series on HIV-1 is given as “synergistic with the HAART regime in their effects upon the HIV infection”. In addition, the “Stability region (pH)” value in series [1] is on record as “very similar to that of the highly dilute solution, possibly slightly wider”.
